Laboratory results from ChEMBL document CHEMBL5291721, “A preclinical secondary pharmacology resource illuminates target-adverse drug reaction associations of marketed drugs” (Nat Commun, 2023).

How the values were obtained:
[1] = target: T1, Muscarinic acetylcholine receptor M2 (Homo sapiens, UniProt P08172)
T1 sequence (P08172 whole entry): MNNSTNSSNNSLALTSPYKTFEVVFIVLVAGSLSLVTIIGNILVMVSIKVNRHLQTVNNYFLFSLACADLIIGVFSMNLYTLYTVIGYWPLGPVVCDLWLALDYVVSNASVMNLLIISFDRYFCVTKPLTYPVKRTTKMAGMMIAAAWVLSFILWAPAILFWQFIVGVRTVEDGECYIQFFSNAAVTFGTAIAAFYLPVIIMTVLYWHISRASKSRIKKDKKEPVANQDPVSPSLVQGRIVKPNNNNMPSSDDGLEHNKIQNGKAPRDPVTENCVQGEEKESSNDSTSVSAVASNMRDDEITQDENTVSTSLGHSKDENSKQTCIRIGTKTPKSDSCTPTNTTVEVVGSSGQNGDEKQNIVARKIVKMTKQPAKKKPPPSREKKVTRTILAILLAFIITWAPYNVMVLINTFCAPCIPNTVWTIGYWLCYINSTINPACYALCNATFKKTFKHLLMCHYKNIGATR

[2] = target: Sodium-dependent noradrenaline transporter (Homo sapiens, UniProt P23975)
Progesterone receptor = target: T2, Progesterone receptor (Homo sapiens, UniProt P06401)
T2 sequence (P06401 whole entry): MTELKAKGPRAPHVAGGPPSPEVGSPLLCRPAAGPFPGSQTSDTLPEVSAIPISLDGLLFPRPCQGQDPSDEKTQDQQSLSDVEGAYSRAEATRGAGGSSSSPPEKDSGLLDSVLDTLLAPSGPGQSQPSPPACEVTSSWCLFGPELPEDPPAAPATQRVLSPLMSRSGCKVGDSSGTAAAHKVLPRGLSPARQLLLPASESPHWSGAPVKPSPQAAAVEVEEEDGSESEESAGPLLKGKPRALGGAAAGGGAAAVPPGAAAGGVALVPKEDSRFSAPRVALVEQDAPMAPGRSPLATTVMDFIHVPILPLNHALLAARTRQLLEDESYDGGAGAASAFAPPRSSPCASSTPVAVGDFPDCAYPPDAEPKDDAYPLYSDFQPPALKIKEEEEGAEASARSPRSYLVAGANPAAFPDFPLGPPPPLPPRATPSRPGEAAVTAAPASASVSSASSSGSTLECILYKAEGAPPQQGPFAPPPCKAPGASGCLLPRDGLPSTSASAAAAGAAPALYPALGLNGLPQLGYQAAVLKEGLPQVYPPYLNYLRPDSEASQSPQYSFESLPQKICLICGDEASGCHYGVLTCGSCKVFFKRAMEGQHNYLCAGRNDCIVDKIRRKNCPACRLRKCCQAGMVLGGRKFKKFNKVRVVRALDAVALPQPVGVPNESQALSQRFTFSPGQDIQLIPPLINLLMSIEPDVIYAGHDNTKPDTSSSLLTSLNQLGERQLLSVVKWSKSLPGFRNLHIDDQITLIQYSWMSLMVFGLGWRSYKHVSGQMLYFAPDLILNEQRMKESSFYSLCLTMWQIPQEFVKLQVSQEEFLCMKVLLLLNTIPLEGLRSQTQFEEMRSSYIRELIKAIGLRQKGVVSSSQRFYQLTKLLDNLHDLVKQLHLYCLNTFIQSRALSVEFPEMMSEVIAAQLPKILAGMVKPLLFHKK

[3] = target: Sodium-dependent dopamine transporter (Homo sapiens, UniProt Q01959)
[4] = target: T3, Alpha-2A adrenergic receptor (Homo sapiens, UniProt P08913)
T3 sequence (P08913 whole entry): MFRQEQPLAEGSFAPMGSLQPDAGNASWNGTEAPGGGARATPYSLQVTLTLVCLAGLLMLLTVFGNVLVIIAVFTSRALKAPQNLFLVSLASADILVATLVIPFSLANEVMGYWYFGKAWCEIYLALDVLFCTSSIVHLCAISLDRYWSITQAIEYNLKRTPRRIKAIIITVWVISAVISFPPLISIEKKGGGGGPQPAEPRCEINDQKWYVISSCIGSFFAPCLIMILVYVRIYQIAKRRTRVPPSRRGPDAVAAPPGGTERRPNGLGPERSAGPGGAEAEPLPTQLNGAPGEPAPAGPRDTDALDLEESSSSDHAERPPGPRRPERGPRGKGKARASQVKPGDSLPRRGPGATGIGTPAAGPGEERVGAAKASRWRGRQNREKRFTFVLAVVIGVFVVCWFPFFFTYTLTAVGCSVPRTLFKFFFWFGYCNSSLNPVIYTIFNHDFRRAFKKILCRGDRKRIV

[5] = target: T4, 5-hydroxytryptamine receptor 1A (Homo sapiens, UniProt P08908)
T4 sequence (P08908 whole entry): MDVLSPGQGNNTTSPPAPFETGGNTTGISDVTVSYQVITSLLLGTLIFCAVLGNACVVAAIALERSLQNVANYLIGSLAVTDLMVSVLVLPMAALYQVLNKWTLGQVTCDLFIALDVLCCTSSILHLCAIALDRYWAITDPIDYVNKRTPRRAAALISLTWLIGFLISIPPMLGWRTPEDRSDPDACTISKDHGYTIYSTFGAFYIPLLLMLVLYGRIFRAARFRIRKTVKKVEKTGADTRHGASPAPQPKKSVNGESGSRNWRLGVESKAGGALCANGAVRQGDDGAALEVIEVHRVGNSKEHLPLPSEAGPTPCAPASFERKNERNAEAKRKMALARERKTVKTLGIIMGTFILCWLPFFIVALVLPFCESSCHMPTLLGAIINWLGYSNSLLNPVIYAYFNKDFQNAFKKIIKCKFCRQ

[6] = target: Prostaglandin G/H synthase 1 (Homo sapiens, UniProt P23219); assay type: functional
[7] = target: Vascular endothelial growth factor receptor 2 (Homo sapiens, UniProt P35968); assay type: functional
B2 bradykinin receptor = target: T5, B2 bradykinin receptor (Homo sapiens, UniProt P30411)
T5 sequence (P30411 whole entry): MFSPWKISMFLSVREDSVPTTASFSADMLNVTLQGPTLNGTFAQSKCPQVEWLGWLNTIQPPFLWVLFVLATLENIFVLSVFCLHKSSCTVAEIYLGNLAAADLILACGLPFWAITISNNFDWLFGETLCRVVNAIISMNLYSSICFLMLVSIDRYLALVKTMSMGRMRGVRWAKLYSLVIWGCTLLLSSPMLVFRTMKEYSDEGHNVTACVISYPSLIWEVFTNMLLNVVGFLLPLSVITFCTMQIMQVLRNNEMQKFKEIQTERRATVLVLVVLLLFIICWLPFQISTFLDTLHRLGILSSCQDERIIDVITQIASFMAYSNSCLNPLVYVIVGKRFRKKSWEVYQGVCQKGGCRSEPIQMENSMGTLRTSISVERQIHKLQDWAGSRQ
Also: assay procedure not described here.

Chain of Prostaglandin G/H synthase 1 (P23219 whole entry): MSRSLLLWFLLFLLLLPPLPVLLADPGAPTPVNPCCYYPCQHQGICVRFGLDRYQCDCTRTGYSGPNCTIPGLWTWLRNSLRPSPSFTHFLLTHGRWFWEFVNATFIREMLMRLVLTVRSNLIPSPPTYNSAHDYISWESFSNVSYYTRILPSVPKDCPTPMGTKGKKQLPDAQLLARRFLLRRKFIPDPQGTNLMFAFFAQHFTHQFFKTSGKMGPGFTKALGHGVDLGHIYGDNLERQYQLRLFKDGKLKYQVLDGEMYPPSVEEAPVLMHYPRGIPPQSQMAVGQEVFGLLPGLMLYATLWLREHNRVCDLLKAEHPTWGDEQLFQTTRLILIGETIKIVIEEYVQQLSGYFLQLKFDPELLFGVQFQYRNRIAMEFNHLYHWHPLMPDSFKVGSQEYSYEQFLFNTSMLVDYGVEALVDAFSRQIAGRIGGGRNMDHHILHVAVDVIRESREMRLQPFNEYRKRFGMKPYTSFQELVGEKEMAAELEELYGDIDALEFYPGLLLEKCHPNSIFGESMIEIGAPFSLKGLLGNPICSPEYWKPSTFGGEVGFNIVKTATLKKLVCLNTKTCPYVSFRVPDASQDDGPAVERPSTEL
Chain of Sodium-dependent dopamine transporter (Q01959 whole entry): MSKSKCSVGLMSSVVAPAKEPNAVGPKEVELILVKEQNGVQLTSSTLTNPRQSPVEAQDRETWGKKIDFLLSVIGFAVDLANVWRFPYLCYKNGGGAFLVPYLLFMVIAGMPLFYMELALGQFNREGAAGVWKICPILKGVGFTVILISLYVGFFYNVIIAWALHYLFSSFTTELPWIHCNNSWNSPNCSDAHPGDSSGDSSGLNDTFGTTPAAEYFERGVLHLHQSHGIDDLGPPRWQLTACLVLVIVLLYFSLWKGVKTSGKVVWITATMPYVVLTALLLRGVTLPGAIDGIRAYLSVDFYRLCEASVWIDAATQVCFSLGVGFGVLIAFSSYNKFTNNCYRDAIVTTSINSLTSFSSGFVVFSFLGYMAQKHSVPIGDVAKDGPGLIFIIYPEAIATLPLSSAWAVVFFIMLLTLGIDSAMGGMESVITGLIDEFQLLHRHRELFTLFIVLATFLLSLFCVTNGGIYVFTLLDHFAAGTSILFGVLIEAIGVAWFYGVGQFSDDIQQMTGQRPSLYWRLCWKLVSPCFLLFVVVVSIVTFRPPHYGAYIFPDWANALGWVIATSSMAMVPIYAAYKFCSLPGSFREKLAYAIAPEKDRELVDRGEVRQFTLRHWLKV
Chain of Vascular endothelial growth factor receptor 2 (P35968 whole entry): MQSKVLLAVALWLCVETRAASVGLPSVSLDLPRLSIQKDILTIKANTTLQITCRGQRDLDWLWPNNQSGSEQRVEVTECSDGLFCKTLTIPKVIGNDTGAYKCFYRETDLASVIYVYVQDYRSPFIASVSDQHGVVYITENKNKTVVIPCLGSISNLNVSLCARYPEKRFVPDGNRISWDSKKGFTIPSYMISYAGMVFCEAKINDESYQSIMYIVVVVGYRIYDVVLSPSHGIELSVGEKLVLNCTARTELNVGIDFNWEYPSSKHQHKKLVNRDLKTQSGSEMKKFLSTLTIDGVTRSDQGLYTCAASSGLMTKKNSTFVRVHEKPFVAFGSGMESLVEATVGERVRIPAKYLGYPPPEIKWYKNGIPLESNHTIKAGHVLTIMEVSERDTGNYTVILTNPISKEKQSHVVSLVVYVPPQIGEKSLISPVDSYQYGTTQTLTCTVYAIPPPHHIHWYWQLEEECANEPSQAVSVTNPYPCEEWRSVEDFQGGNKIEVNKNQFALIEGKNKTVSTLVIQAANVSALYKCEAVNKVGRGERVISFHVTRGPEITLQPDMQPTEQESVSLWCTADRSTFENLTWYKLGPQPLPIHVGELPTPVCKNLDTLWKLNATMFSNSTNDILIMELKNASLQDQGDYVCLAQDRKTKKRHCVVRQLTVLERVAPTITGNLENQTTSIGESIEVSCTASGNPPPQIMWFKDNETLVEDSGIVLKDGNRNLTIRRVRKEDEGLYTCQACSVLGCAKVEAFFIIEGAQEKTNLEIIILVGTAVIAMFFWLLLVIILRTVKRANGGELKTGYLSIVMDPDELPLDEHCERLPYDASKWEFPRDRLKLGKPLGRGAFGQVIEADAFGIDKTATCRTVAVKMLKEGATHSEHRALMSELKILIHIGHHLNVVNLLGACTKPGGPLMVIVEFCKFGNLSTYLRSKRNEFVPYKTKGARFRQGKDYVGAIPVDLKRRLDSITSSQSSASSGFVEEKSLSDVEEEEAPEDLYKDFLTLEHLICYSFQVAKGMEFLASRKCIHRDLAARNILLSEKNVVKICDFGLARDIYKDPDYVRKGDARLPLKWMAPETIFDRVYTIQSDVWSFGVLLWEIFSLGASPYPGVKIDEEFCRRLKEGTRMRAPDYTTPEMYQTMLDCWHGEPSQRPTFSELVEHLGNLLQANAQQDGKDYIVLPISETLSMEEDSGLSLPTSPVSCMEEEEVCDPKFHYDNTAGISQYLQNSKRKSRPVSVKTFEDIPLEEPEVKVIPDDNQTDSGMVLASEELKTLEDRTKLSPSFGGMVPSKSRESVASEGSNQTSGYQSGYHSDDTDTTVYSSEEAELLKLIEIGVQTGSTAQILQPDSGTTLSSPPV
Chain of Sodium-dependent noradrenaline transporter (P23975 whole entry): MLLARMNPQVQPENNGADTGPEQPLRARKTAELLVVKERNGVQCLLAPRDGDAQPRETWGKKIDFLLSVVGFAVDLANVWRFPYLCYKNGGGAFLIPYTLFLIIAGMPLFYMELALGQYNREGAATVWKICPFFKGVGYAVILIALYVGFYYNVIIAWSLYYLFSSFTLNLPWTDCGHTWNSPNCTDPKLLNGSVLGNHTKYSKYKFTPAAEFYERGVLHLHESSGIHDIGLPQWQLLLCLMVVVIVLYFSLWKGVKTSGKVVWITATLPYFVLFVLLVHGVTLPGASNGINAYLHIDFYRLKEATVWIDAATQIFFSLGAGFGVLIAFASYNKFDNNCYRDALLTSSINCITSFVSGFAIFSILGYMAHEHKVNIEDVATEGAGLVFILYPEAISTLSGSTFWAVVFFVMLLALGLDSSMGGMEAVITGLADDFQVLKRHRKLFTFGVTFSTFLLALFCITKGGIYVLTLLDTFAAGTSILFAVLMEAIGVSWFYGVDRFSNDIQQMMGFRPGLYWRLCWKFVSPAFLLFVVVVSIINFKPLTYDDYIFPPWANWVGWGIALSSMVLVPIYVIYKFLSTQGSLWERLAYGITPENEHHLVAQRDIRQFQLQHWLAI

For `C[C@]12CC[C@@H]3c4ccc(OC(=O)N(CCCl)CCCl)cc4CC[C@H]3[C@@H]1CC[C@@H]2OP(=O)(O)O` [ESTRAMUSTINE PHOSPHATE], which AC50 [1] is on record?
The AC50 was > 30 µM.

What about the AC50 [2] of the same compound?
Its AC50 is > 30 µM.

And the AC50 (Progesterone receptor)?
The AC50 was > 30 µM.

What about the AC50 [3] of the same compound?
Its AC50 is > 30 µM.

What about the AC50 [4] of the same compound?
Its AC50 is > 30 µM.

And the AC50 [5]?
Its AC50 is > 30 µM.

What about the AC50 [6] of the same compound?
The AC50 was > 30 µM.

What about the AC50 [7] of the same compound?
The AC50 was 19.5 µM.

What does the source list for `CC#CC(=O)N1CCC[C@H]1c1nc(-c2ccc(C(=O)Nc3ccccn3)cc2)c2c(N)nccn12` [ACALABRUTINIB]?
AC50 [1]: > 30 µM; AC50 [2]: > 30 µM; AC50 (Progesterone receptor): > 30 µM; AC50 [3]: > 30 µM; AC50 [4]: > 30 µM; AC50 [5]: > 30 µM; AC50 [6]: > 30 µM; AC50 [7]: 2.01 µM

Which results are given for `CC1=C(C/C=C(\C)CCC[C@H](C)CCC[C@H](C)CCCC(C)C)C(=O)c2ccccc2C1=O` [PHYTONADIONE]?
AC50 [1]: > 30 µM; AC50 [2]: > 30 µM; AC50 (Progesterone receptor): > 30 µM; AC50 [3]: > 30 µM; AC50 [4]: > 30 µM; AC50 [5]: > 30 µM; AC50 [6]: 13.4 µM; AC50 [7]: > 30 µM

`CNC1(c2ccccc2Cl)CCCCC1=O` (stereo unspecified) [KETAMINE] was tested. Which AC50 [1] did it give?
The AC50 was > 30 µM.

What about the AC50 [2] of the same compound?
Its AC50 is > 30 µM.

What about the AC50 (Progesterone receptor) of the same compound?
The AC50 was > 30 µM.

And the AC50 [3]?
Its AC50 is > 30 µM.

What about the AC50 [4] of the same compound?
Its AC50 is > 30 µM.

And the AC50 [5]?
Its AC50 is > 30 µM.

What about the AC50 [6] of the same compound?
The AC50 was > 30 µM.

What about the AC50 [7] of the same compound?
Its AC50 is > 30 µM.

`NC(=O)C1(N2CCCCC2)CCN(CCCC(=O)c2ccc(F)cc2)CC1` [PIPAMPERONE] was tested. Which AC50 [1] did it give?
The AC50 was > 30 µM.

What about the AC50 [2] of the same compound?
Its AC50 is > 30 µM.

And the AC50 (Progesterone receptor)?
The AC50 was > 30 µM.

What about the AC50 [3] of the same compound?
The AC50 was 2.92 µM.

And the AC50 [4]?
Its AC50 is 5.47 µM.

What about the AC50 [5] of the same compound?
The AC50 was 11.5 µM.

What about the AC50 [6] of the same compound?
The AC50 was > 30 µM.

And the AC50 [7]?
The AC50 was > 30 µM.

With `CC(C)NC[C@H](O)COc1ccc(O)cc1` [PRENALTEROL] as the compound, how does the AC50 [1] read?
The AC50 was > 30 µM.

And the AC50 [2]?
Its AC50 is 4.55 µM.

What about the AC50 (Progesterone receptor) of the same compound?
Its AC50 is > 30 µM.

What about the AC50 [3] of the same compound?
Its AC50 is > 30 µM.

And the AC50 [4]?
Its AC50 is > 30 µM.

And the AC50 [5]?
The AC50 was > 30 µM.

And the AC50 [6]?
The AC50 was 5.86 µM.

What about the AC50 [7] of the same compound?
The AC50 was > 30 µM.

Which results are given for `CN1CCC(N(Cc2cccs2)c2ccccc2)CC1` [THENALIDINE]?
AC50 [1]: 0.699 µM; AC50 [2]: 0.399 µM; AC50 (Progesterone receptor): > 30 µM; AC50 [3]: 1.61 µM; AC50 [4]: 8.45 µM; AC50 [5]: 8.65 µM; AC50 [6]: > 30 µM; AC50 [7]: > 30 µM

What does the source list for `Cc1cccc(C)c1NC(=O)c1cc(S(N)(=O)=O)c(Cl)cc1O` [XIPAMIDE]?
AC50 [1]: > 30 µM; AC50 [2]: > 30 µM; AC50 (Progesterone receptor): > 30 µM; AC50 [3]: > 30 µM; AC50 [4]: > 30 µM; AC50 [5]: > 30 µM; AC50 [6]: > 30 µM; AC50 [7]: > 30 µM

How did the AC50 (B2 bradykinin receptor) turn out when `CS(=O)(=O)Nc1ccc([N+](=O)[O-])cc1Oc1ccccc1` [NIMESULIDE] was run?
The AC50 was 20 µM.

And the AC50 [1]?
Its AC50 is > 30 µM.

And the AC50 [2]?
Its AC50 is > 30 µM.

And the AC50 (Progesterone receptor)?
The AC50 was > 30 µM.

What about the AC50 [3] of the same compound?
Its AC50 is 26.6 µM.

And the AC50 [4]?
Its AC50 is > 30 µM.

And the AC50 [5]?
The AC50 was > 30 µM.

And the AC50 [7]?
The AC50 was > 30 µM.

With `O=C1[C@@H]2[C@H]3CC[C@H](C3)[C@@H]2C(=O)N1C[C@@H]1CCCC[C@H]1CN1CCN(c2nsc3ccccc23)CC1` [LURASIDONE] as the compound, how does the AC50 [2] read?
Its AC50 is 24.1 µM.

What about the AC50 (Progesterone receptor) of the same compound?
Its AC50 is > 30 µM.

What about the AC50 [6] of the same compound?
Its AC50 is > 30 µM.

And the AC50 [7]?
Its AC50 is > 30 µM.
